Measurements taken from article PMC12419922, “Myristoylated Cathelicidin-DM Fused With ANG1-7: A Novel Self-Assembling Antimicrobial Peptide for the Treatment and Mechanism of Diabetic Infected Wounds” (Journal of Diabetes Research, 2025).
Where a SMILES comes first, the peptide text is derived from it.

What was measured:
HUVECs [1] = assay: MDA, thiobarbituric acid method; assay type: cell-based, human; details: HUVEC supernatant, HG + LPS (HG + LPS increased by 1.65 times); n = 3
Description: The level of MDA was determined by the thiobarbituric acid (TBA) method. Briefly, 100 μL of cell supernatant was mixed with 200 μL of a 10% trichloroacetic acid solution of 0.67% TBA. The mixture was incubated at 95°C for 30 min, cooled on ice, and centrifuged at 12,000 × g at 4°C for 10 min. The absorbance of the supernatant was measured at 532 nm using an enzyme-labeled instrument. The experiments were repeated three times.

HUVECs [2] = assay: Scratch wound healing assay; assay type: cell-based, human; details: HG + LPS, 20 μg/mL, n = 3; for wound healing rate (scratch assay): after 12 h; for healing area (scratch assay): at 48 h
Description: In a 6-well plate, HUVECs (2 × 10^5 cells/well) were seeded. The cells were starved in serum-free medium for 12 h, and then, a scratch was made vertically using a 200-μL pipette tip. […]

HUVECs [3] = assay: Tube formation (angiogenesis) on Matrigel; assay type: cell-based, human; details: 9 h, n = 3
Description: The formation of vascular structure was observed by matrix glue experiment, and the angiogenesis ability was evaluated in Matrigel stent (Corning, New York). After treatment in each group, 300 μL (2 × 10^5 cells/mL) HUVECs were digested and inoculated into a 24-well plate containing Matrigel scaffold. After 9 h, the formation image of the tube was photographed.

HUVECs [4] = assay: NO secretion, Griess reaction; assay type: cell-based, human; details: HG + LPS (HG + LPS 0.5 times the original level), n = 3
Description: NO levels were determined using the Griess reaction. Briefly, 100 μL of cell culture supernatant was mixed with an equal volume of Griess reagent and incubated at room temperature in the dark for 30 min. The absorbance of the reaction mixture was measured at 540 nm using a microplate reader. Sodium nitrite (NaNO2) was used as a standard to generate a calibration curve, and the NO concentration in the samples was calculated accordingly. All experiments were independently performed in triplicate to ensure data reliability and reproducibility.

[5] = test system: S. aureus (ATCC 25923) infected diabetic wound; assay: Diabetic mouse S. aureus-infected full-thickness skin wound model; details: for wound healing rate: 7th day, 20 μg/mL in PBS, 200 μL subcutaneously for 3 days, n = 4
Description: BALB/c male mice are from the Experimental Animal Center of Air Force Military Medical University. One group was fed a normal diet, and the other five groups were fed a high-fat diet for 4 weeks and then injected with 35 mg/kg streptozotocin (STZ, 35 mg/kg, Sigma) intraperitoneally for 3 days. […] After intraperitoneal injection of pentobarbital sodium (1%, […]), the dorsal hair of each animal was shaved off, and a circular full-thickness skin wound was created on the back using a 10-mm sterile mouse punch. S. aureus (ATCC 25923) was used to infect the wound site of mice, and a full-thickness wound infection model of mice was established. S. aureus was first resuscitated by operation in a biological ultra-clean table. A single colony was picked and incubated in LB medium at 37°C and 200 rpm. The concentration of the above S. aureus solution was adjusted to 1 × 10^8 CFU/mL to infect the wound of mice. Then, 24 h after S. aureus infection, three drugs, DM (20 μg/mL), ANG1-7 (20 μg/mL), and MYR-DM-ANG1-7 (20 μg/mL), were dissolved in PBS buffer, and 200 μL was injected subcutaneously for 3 days. After drug injection, the wound pus was diluted and coated with plate culture to observe the colony situation. The gross specimen imaging system (GF-7A, China) was used to record the wounds of mice on the same day and every other day after the formation of the wounds. The rubber ring with adhesive backing was used to fix the wound and prevent it from shrinking. ImageJ analysis software (NIH, Bethesda, MD, United States) was used to calculate and analyze the wound area. After 0, 3, 7, 10, and 14 days, the size of the infected wound was evaluated by rubber ring. The wound closure was measured as follows: the wound healing rate (%) = [W0 − Wn]/W0 × 100%, where W0 and Wn represent the wound area on the 0th and nth days, respectively (n = 4).
On the 14th day, the skin tissue was fixed in 4% paraformaldehyde solution, dehydrated, embedded in paraffin, sliced, and stained with hematoxylin–eosin (HE) and Masson. Skin tissue sections on Day 7 were immunofluorescently stained using rabbit anti-mouse CD31 (Cell Signaling Technology) and α-SMA (Cell Signaling Technology), and all stained sections were observed under the slide scanner (Aperio AT 2; Leica Biosystems, Germany).

[6] = test system: PI3K/AKT/eNOS signaling pathway, MasR in HUVECs; assay: Western blot of PI3K/AKT/eNOS signaling pathway and MasR; assay type: cell-based, human; details: inhibitor group
Description: After the specified treatments, HUVECs were harvested using a cell scraper and lysed in cell lysis buffer (Wuhan Boster Biological Engineering Co., Ltd.) for 30 min at 4°C. Total protein was quantified using a BCA protein assay kit. Lysate (20 μg) from each sample was separated by 10% sodium dodecyl sulfate–polyacrylamide gel electrophoresis (SDS-PAGE) and then transferred to a polyvinylidene fluoride (PVDF) membrane. The membrane was blocked with a fresh blocking buffer containing 5% skim milk in Tris-buffered saline with 0.1% Tween 20 (TBS-T) for 2 h at room temperature and then incubated with primary antibodies against AKT (1:1000 dilution, #4691, Cell Signaling Technology), p-AKT (1:2000 dilution, #4060, Cell Signaling Technology), PI3K (1:1000 dilution, ab191606, Abcam), p-PI3K (1:1000 dilution, ab278545, Abcam), eNOS (1:1000 dilution, #32027, Cell Signaling Technology), p-eNOS (1:1000 dilution, ab215717, Abcam), and Mas (1:1000 dilution, #85003-1-RR, Proteintech) overnight at 4°C with shaking. The membrane was washed with TBS-T for 15 min and then incubated with horseradish peroxidase (HRP)–conjugated goat anti-rabbit secondary antibody (Wuhan Sanying Biotechnology Co., Ltd.) at a 1:2000 dilution in TBS-T and 3% skim milk for 90 min at room temperature. The membrane was washed three times with TBS-T, each for 15 min, and the immune reaction signals were detected using an ECL detection method. Protein bands were detected using a chemiluminescent gel imaging system (Bio-Rad Lab, China). Protein expression was quantitatively analyzed using ImageJ software (National Institutes of Health, Bethesda, MD, United States), and the experiment was repeated three times.

## DRVYIH [ANG1-7, angiotensin 1-7]
HUVECs [1]
  secretion of MDA, decreased by: 0.56 times
HUVECs [2]
  wound healing rate (scratch assay): 44.7%
  healing area (scratch assay): 72.06%
HUVECs [3]; HG + LPS (HG + LPS group 0.3 times)
  main connections of formed blood vessels: 1.4 times
HUVECs [4]
  NO secretion in cell supernatant, increases to: 1.65 times
[5]
  wound healing rate: 40.69%

## CC[C@H](C)[C@H](NC(=O)[C@H](CC(C)C)NC(=O)[C@@H](NC(=O)[C@H](Cc1ccc(O)cc1)NC(=O)CNC(=O)CNC(=O)[C@H](CCCNC(=N)N)NC(=O)[C@H](CC(C)C)NC(=O)[C@H](CCCCN)NC(=O)[C@H](CC(C)C)NC(=O)[C@H](CCCCN)NC(=O)[C@H](CS)NC(=O)[C@H](CC(C)C)NC(=O)[C@H](Cc1c[nH]c2ccccc12)NC(=O)CNC(=O)[C@H](CCCCN)NC(=O)[C@H](CS)NC(=O)[C@@H]1CCCN1C(=O)[C@H](CCCCN)NC(=O)[C@H](CCCNC(=N)N)NC(=O)[C@H](CCCNC(=N)N)NC(=O)[C@H](CO)NC(=O)[C@@H](N)CO)[C@@H](C)O)C(=O)NCC(=O)N[C@@H](CO)C(=O)N[C@@H](C)C(=O)N[C@H](C(=O)N[C@@H](CC(N)=O)C(=O)N[C@@H](CC(C)C)C(=O)N[C@@H](CC(N)=O)C(=O)N[C@@H](CCCNC(=N)N)C(=O)N1CCC[C@H]1C(=O)N[C@H](C(=O)N[C@@H](Cc1ccc(O)cc1)C(=O)N[C@H](C(=O)N[C@@H](CCCNC(=N)N)C(=O)N[C@@H](C)C(=O)O)C(C)C)[C@@H](C)O)[C@@H](C)O [DM, cathelicidin-DM] (H-SSRRKPCKGWLCKLKLRGGYTLIGSATNLNRPTYVRA-OH; N-terminus and C-terminus assumed)
HUVECs [1]
  secretion of MDA, increased by: 1.2 times
HUVECs [2]
  wound healing rate (scratch assay): 25.2%
  healing area (scratch assay): 52.6%
HUVECs [3]; HG + LPS (HG + LPS group 0.4 times)
  length of formed blood vessels: 1.3 times
HUVECs [4]
  NO secretion in cell supernatant, increases to: 1.2 times
[5]
  wound healing rate: 69.86%
[5]; seventh day, vs the diabetes infection group, p < 0.01
  fluorescence intensity of α-SMA: significantly higher

## O=c1cc(N2CCOCC2)oc2c(-c3ccccc3)cccc12 [LY294002, reference compound]
[6]
  increase in p-PI3K, p-AKT, and p-eNOS levels: significantly inhibited
